Consider 12 compounds from patent US6133264A, “Carbostyril derivatives for inhibiting skin erythema and/or skin pigmentation” (Otsuka Pharmaceutical Co., Ltd., priority 1997, dated 2000).

Structures are written as SMILES. Where a name gives a salt, the structure may show the parent alone.

One data set relates to skin pigmentation. Briefly: Effect for preventing skin pigmentation caused by UV rays irradiation. Type of data set: in vivo, colored guinea pig (A-1 strain, female). Conditions: 3% test compound solution, 14 days after UV irradiation; for (E): ΔL value of brightness of the skin coated with test compound solution (test section): 10 μl/cm^2; for Inhibitory ratio of skin pigmentation (%): {1-[(E)/(F)]}×100. The protocol:
(3) Effect for preventing skin pigmentation caused by UV rays irradiation This is an experimental model of quantitative evaluation of effect for preventing skin pigmentation caused by UV rays irradiation performed by test compound. [Test was conducted by a modified method according to procedures of J. Dermatol. Vol. 17, pp. 595-598,(1990).] Hairs on the back of a colored guinea pig (A-1 strain, female, age of 8-10 weeks) were shaved and the body of guinea pig was fixed on a Bowlman cage, and predermined 2 sections of UV rays irradiation. […] The inhibitory ratio of the skin pigmentation (%) performed by the test compound was calculated from the following formula. […] [wherein (E): ΔL value of brightness of the skin coated with test compound solution (test section), (F): ΔL value of brightness of the skin coated the solvent (reference section), and ΔL value: difference of brightness of the skin between the portion without irradiated and the portion irradiated with UV rays].

A further data set deals with skin erythema (sunburn). Briefly: Effect for preventing skin sunburn caused by UV rays irradiation (in vivo). Also noted: species or system albino guinea pig (Hartley strain, female). The note with it: 3% test compound solution, 24 hours after UV irradiation; for (C): Δa value of test section of skin coated with test compound solution: 10 μl; for inhibition in vivo at 3 %: Cavia porcellus, light or radiation study, topical, 24 h, read-out: Inhibitory ratio of skin erythema (%); for inhibition in vivo at 3 % / Inhibitory ratio of skin erythema (%): {1-[(C)/(D)]}×100. The method, then: (2) Effect for preventing skin sunburn caused by UV rays irradiation (in vivo)
This test is an experimental model of quantitative evaluation of effect for preventing skin sunburn, caused by UV rays irradiation, performed by the test compound. [Test was conducted by a modified method according to the procedures of J. Dermatol. Vol. 17, pp. 595-598, (1990).]
Hairs on the back of an albino guinea pig (Hartley strain, female, age of 7-8 weeks) were shaved by use of an electric hair clipper and an electric shaver. Next day, the guinea pig was fixed on a Bowlman cage, a piece of shading tape (a plaster for patch test) having 4 circular holes of 1.5 cm in diameter was put on the shaved portion of the skin, and predetermined 2 sections of UV rays irradiation. One section (reference section) was coated with 10 μl of a solvent (water or 50% ethanol-water solution). Another section (test section) was coated with 10 μl of 3% test compound solution (aqueous or 50% ethanol-water solution). 30 Minutes after the coating, UV rays of 1.3-1.5 mW/cm^2 in strength was irradiated for 30 minutes by use of a fluorescent lamp of healthy light (TOSHIBA FL-20.cndot.SE) as a light source. 24 Hours after the irradiation, the reference section (coated with the solvent only) and the test section (coated with test compound solution) were observed respectively, and the erythrochromia (Δa value) on both reference section and test section were measured by use of a color difference meter (OFC-300A Type, mfd. by NIHON DENSHOKU KOGYO CO., LTD). The inhibitory ratio of skin erythema (sunburn) performed by the test compound was calculated from the following formula.
Inhibitory ratio of skin erythema (sunburn) (%)={1-[(C)/(D)]}×100
(C): Δa Value of test section of skin coated with test compound solution,
(D): Δa Value of reference section of skin coated with the solvent only, and
Δa value: difference of skin erythema on the portion irradiated with UV rays].

Data set [1] has as its system skin reaction (erythema and edema). In words: Skin sensitization test (Adjuvant and strip test), photosensitization. Format: in vivo, Albino guinea pigs (Hertley strain, female). Conditions: 3% test compound solution, open-coated; observed 24 hours and 48 hours; [(G)/(H)]×100. The source says: (4) Skin sensitization test [Adjuvant and strip test: J. Invest. Dermatol., Vol. 76, pp 498-501, (1981)]
This test was used as experimental model for evaluating the existence of toxicity of photosensitization to the skin performed by the test compounds.
(i) Procedure for inducing photosensitization
Albino guinea pigs (Hertley strain, female, age of 5-6 weeks) were used. Hairs of the nuchal area of the guinea pig were shaved, and designated the test sample coating section having 2×4 cm in size. At the four corners of the test sample coating section, 0.1 ml each of E-FCA (an emulsion consisting of the same volume each of Freund's complete adjuvant with sterilized distilled water) were intracutaneouly injected. The coating section was subjected to striping repeatedly by use of Cellophane tape until the section turned to slightly erythema, then 0.1 ml of test compound solution (aqueous or 50% ethanol-water solution) of 3% in concentration was open-coated on the section. 30 Minutes after the coating, UV rays of about 10 J/cm^2 in dosage was irradiated by use of a fluorescent lamp of healthy light (TOSHIBA FL-20S-BLB) as a light source. The above-mentioned procedure was carried out once a day, and continuously conducted for 5 days, provided that E-FCA was administered only on the first day.
(ii) Procedure for introducing sensitization
3 Weeks after the beginning of induction period of photosensitization, the covering hairs on the back of guinea pig were shaved, and determined a circular section, having 1.5 cm in diameter, for coating test samples, and 20 μl of test compound solution (aqueous or 50% ethanol-water solution) of 3% in concentration was open-coated on the section. The test sample coated section was observed 24 hours and 48 hours, and examined existences of skin reaction (erythema and edema). In case of skin reaction was appeared, then it was determined as positive reaction in skin sensitization which was defined as a positive ratio (%) calculated from the following formula.
Positive ratio (%)=[(G)/(H)]×100
(G): Number of positive reactions in skin sensitization and
(H): Number of total animal tests].

Data set [2] is described as follows: DPPH free radical extinction activity test. Format: biochemical. Conditions: relative to α-tocopherol (= 2); 5 μl of 10 mM test compound, 30° C., 30 minutes, pH 5.5 buffer, 517 nm. The method, then:
(1) DPPH free radical extinction activity test
The test was conducted by procedures according to the method by Marsden S. Blois [Nature, Vol. […], 1199-1200, (1958)].
Into 0.5 ml of 200 mM of acetic acid buffer solution (pH 5.5) were added 0.5 ml of distilled water, 0.5 ml of ethanol and 5 μl of 10 mM of the test compound solution (an ethanol solution, a dimethylformamide solution or an aqueous solution), and stirred at 30° C. for 5 minutes. To this mixed solution was added 1.5 ml of an ethanol solution of 250 μM of 1,1-diphenyl-2-picrylhydrazyl (DPPH), this mixture was incubated at 30° C. for 30 minutes. After the incubation, the optical absorbance (at 517 nm) of this reaction mixture was measured, and the number of captured free radicals of DPPH was calculated from the ratio of optical absorbance of test compound and that of α-tocopherol (standard substance: the number of captured free radicals: 2) by the following formula: […]
Number of captured free radicals of DPPH performed by test
(A): optical absorbance of the test sample, and
(B): optical absorbance of α-tocopherol].
For orientation: The DPPH test is a chemical assay of radical scavenging.

For data set [3] the following is noted: assigned value of the standard α-tocopherol; cited from earlier work.

As to `Cc1cc2c(c(CN3CCCC3)c1O)NC(=O)CC2` [Example 25], in the data set on skin pigmentation, the “(E): ΔL value of brightness of the skin coated with test compound solution (test section)” value (from here on “(E): ΔL value”) is -5.02 ± 2.02 and the “Inhibitory ratio of skin pigmentation (%)” value was 38%. For the same compound, in the data set with skin erythema (sunburn), the “(C): Δa value of test section of skin coated with test compound solution” value (“(C): Δa value” for short) is reported as 3.31 ± 2.00 and the inhibition in vivo at 3 % amounted to 64%. Moreover, the “Positive ratio (%)” value in data set [1] is given as 0%. Also, in data set [2], the “Number of captured free radicals of DPPH” value amounted to 1.
In the case of `C=CCOc1cc(CN2CCCCC2)c(O)c2c1NC(=O)CC2` [Example 28, 8-allyloxy-3,4-dihydro-5-hydroxy-6-(1-piperidinyl)methyl-2(1H)-quinolinonehydrochloride], in the data set on skin pigmentation, the “(E): ΔL value” value is on record as -4.51 ± 1.87 and the “Inhibitory ratio of skin pigmentation (%)” value turned out to be 43%. In the data set on skin erythema (sunburn), the “(C): Δa value” value is on record as 1.13 ± 0.58 and the “Inhibitory ratio of skin erythema (%)” value was 78%. Moreover, in data set [1], the “Positive ratio (%)” value is reported as 0%. The “Number of captured free radicals of DPPH” value in data set [2] is reported as 2.
`C=CCOc1cc(CN(C)C)c(O)c2c1NC(=O)CC2` [Example 18, 8-allyloxy-3,4-dihydro-5-hydroxy-6-dimethyl-aminomethyl-2(1H)-quinolinone hydrochloride]: in the data set with skin pigmentation, the “(E): ΔL value” value was -3.53 ± 1.24 and the “Inhibitory ratio of skin pigmentation (%)” value worked out at 49%. Also, in the data set with skin erythema (sunburn), the “(C): Δa value” value is 3.87 ± 2.45 and the inhibition in vivo at 3 % worked out at 51%. Besides, in data set [1], the “Positive ratio (%)” value was determined as 0%. For the same compound, the “Number of captured free radicals of DPPH” value in data set [2] turned out to be 1.5.
Regarding `COc1cc(CN(C)C)c(O)c2c1NC(=O)CC2.Cl` [Example 35, 6-(dimethylaminomethyl)-3,4-dihydro-5-hydroxy-8-methoxy-2(1H)-quinolinone hydrochloride], in the data set on skin pigmentation, the “(E): ΔL value” value is recorded as -4.44 ± 2.17 and the “Inhibitory ratio of skin pigmentation (%)” value was 35%. Also, in the data set with skin erythema (sunburn), the “(C): Δa value” value is recorded as 3.61 ± 2.91 and the inhibition in vivo at 3 % came out at 51%. The “Positive ratio (%)” value in data set [1] came to 0%. Besides, in data set [2], the “Number of captured free radicals of DPPH” value amounted to 1.5.
As to `Cl.O=c1ccc2c(CN3CCCC3)c(O)ccc2[nH]1` [Example 22, 6-hydroxy-5-(1-pyrrolidinyl)methyl-2(1H)-quinolinone hydrochloride], in the data set with skin erythema (sunburn), the “(C): Δa value” value stood at 5.51 ± 2.32 and the inhibition in vivo at 3 % came out at 37%. Besides, the “Positive ratio (%)” value in data set [1] is reported as 0%. Also, the “Number of captured free radicals of DPPH” value in data set [2] amounted to 1.5.
On the same counts, the results for `CCN(CC)Cc1ccc2c(c1O)CCC(=O)N2` [Example 13, 6-diethylaminomethyl-5-hydroxy-3,4-dihydrocarbostyril] are 3.93 ± 0.92, 42%, 0% and 1.
As for `C=CCOc1cc(CN2CCCCC2)c(O)c2c1NC(=O)CC2` [Example 33], in the data set on skin pigmentation, the “(E): ΔL value” value was -2.61 ± 2.98 and the “Inhibitory ratio of skin pigmentation (%)” value is listed as 55%. Also, in the data set with skin erythema (sunburn), the “(C): Δa value” value is listed as 3.96 ± 1.02 and the “Inhibitory ratio of skin erythema (%)” value came out at 49%. For the same compound, the “Positive ratio (%)” value in data set [1] is recorded as 0%. Besides, the “Number of captured free radicals of DPPH” value in data set [2] worked out at 1.5.
As to `Cc1c(C)c2c(c(C)c1O)CCC(C)(CCCC(C)CCCC(C)CCCC(C)C)O2` (stereo not drawn) [α-tocopherol], the “number of captured free radicals (standard substance)” value in data set [3] was 2.
`C=CCOc1cc(CN2CCCCC2)c(O)c2c1N(CC=C(C)C)C(=O)CC2` [Example 32]: in the data set with skin pigmentation, the “(E): ΔL value” value is on record as -3.37 ± 2.36 and the “Inhibitory ratio of skin pigmentation (%)” value is reported as 42%. Besides, in the data set with skin erythema (sunburn), the “(C): Δa value” value came out at 2.17 ± 0.97 and the inhibition in vivo at 3 % turned out to be 64%. The “Positive ratio (%)” value in data set [1] is on record as 0%. The “Number of captured free radicals of DPPH” value in data set [2] was 1.
As for `O=C1CCc2c(O)c(CN3CCCC3)cc(OC3CCCCO3)c2N1` (stereo not shown) [Example 47], in the data set on skin pigmentation, the “(E): ΔL value” value is -4.89 ± 1.24 and the “Inhibitory ratio of skin pigmentation (%)” value is reported as 38%. In the data set on skin erythema (sunburn), the “(C): Δa value” value is 0.88 ± 0.29 and the inhibition in vivo at 3 % was found to be 76%. The “Positive ratio (%)” value in data set [1] is 0%. For the same compound, the “Number of captured free radicals of DPPH” value in data set [2] amounted to 3.5.
With `CCN(CC)Cc1cc(C)c2c(c1O)CCC(=O)N2` [Example 9, 5-Hydroxy-6-diethylaminomethyl-8-methyl-3,4-dihydro-2(1H)-quinolinone], in the data set on skin erythema (sunburn), the “(C): Δa value” value came to 4.69 ± 1.62 and the inhibition in vivo at 3 % was determined as 38%. Further, the “Positive ratio (%)” value in data set [1] is 0%. In addition, the “Number of captured free radicals of DPPH” value in data set [2] was found to be 1.
For `CCCOc1cc(CN2CCCCC2)c(O)c2c1NC(=O)CC2.Cl` [Example 30, 3,4-dihydro-8-propyloxy-5-hydroxy-6-(1-piperidinyl)methyl-2(1H)-quinolinone hydrochloride], in the data set with skin pigmentation, the “(E): ΔL value” value is given as -3.40 ± 1.18 and the “Inhibitory ratio of skin pigmentation (%)” value turned out to be 50%. Besides, in the data set with skin erythema (sunburn), the “(C): Δa value” value was 4.73 ± 1.94 and the inhibition in vivo at 3 % was 40%. In addition, the “Positive ratio (%)” value in data set [1] came to 0%. The “Number of captured free radicals of DPPH” value in data set [2] is on record as 2.
